Data reported in US20240199564A1, “TRPM8 AGONISTS AS COOLING AGENTS AND FOR THE TREATMENT OF DISEASE” (Concentric Analgesics, Inc., priority 2021, published 2024).
Where a name gives a salt, the structure may show the parent alone. Read-outs that look alike come from different tables or passages of the source.

Tests used:
[1] = Solution state stability assay; format: physicochemical; settings: 50° C.; for % degradation at 28 days: HPLC; for aqueous stability / hydrolysis, comparison in words: buffer, 28 days
Method: Compounds were incubated in the buffer media indicated (ingredients for making of PBS buffer and sodium citrate/citric acid buffer were obtained from Sigma-Aldrich, St. Louis, MO, USA). The reactions were conducted at either 50° C. and for 28 days. Samples were collected at specific time points and analyzed for % degradation of the parent compound based on UV/Vis analysis.
Methods: Samples were weighed using a Mettler Toledo XS105 analytical balance (accurate to +/−0.01 mg). Accurate dilutions were made with a P1000, P200, or P20 Gilson Pipetman, or an Eppendorf Maxipettor 1-10 mL pipettor. pH Measurements were made with a Hanna Instruments HI 4222 pH meter and a Hanna instruments HI 1330B micro pH probe. Samples were analyzed via high pressure liquid chromatography using an Agilent series 1100 HPLC instrument with a Grace Alltima column. Chromatograms were manually integrated. Individual chromatograms are assigned an automatic HPLC identification number.
Freshly prepared 1.0 mg/mL solution of each compound listed in Table # was allotted into two-dram clear glass vials. […] The vials were then stored in an oven set to 50° C. At the appropriate time points, the vials were removed from the oven, vortexed for 30 seconds and an aliquot (400 μL) was pipetted into an HPLC vial and quenched with 1% TFA in ACN (400 μL). […] For all samples, aliquots were taken after 28 days. Quenched vials were immediately analyzed via HPLC.

[2] = biological target: T1, human TRPM8 receptor expressed in transfected 293H cells (Homo sapiens, UniProt Q7Z2W7); test: TRPM8 Human Transient Potential Ion Channel Cell Based Agonist Calcium Flux Assay (FLIPR)
T1 construct: expressed in transfected cells; host or cells: 293H cells
T1 sequence (Q7Z2W7 whole entry): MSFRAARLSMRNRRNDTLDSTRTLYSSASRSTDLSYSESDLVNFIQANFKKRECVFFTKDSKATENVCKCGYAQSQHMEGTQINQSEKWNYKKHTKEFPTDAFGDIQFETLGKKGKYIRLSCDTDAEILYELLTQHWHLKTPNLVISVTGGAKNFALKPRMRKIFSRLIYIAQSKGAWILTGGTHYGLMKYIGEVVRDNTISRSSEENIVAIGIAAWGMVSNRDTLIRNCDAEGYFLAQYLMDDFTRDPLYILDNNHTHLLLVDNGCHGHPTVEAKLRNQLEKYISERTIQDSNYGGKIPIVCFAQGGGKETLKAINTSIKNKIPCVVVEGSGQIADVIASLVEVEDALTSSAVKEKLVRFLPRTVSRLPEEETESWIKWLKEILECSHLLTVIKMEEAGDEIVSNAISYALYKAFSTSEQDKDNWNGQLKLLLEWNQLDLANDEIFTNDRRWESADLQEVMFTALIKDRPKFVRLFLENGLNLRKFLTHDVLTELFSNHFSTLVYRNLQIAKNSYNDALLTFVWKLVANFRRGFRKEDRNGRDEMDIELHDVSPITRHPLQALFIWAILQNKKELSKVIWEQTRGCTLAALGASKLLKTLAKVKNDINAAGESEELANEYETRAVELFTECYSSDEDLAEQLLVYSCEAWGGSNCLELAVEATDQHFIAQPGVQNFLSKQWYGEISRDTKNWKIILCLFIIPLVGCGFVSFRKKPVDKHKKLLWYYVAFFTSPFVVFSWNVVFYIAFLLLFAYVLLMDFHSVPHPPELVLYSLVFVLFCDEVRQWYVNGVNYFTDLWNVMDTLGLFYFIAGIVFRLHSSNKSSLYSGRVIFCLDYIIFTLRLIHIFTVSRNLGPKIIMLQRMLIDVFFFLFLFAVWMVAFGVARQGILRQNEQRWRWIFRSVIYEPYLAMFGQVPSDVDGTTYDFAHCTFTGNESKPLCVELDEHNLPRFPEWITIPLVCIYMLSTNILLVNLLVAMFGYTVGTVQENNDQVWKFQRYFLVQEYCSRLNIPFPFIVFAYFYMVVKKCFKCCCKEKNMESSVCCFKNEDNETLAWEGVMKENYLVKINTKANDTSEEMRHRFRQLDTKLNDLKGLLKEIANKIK
Text: This example discloses results from TRPM8 Human Transient Potential Ion Channel Cell Based Agonist Calcium Flux Assay. Evaluation of the agonist activity of compounds at the human TRPM8 receptor expressed in transfected 293H cells, determined by measuring their effect on cytosolic Ca2+ ion mobilization using a fluorometric detection method.
Protocol: The cells are suspended in DMEM buffer (Invitrogen), then distributed in microplates at a density of 3×10^4 cells/well. The fluorescent probe (Fluo4 Direct, Invitrogen) in HBSS buffer (Invitrogen) complemented with 20 mM Hepes (Invitrogen) (pH 7.4) is then added into each well and equilibrated with the cells for 60 min at 37° C. then 15 min at 22° C. Thereafter, the assay plates are positioned in a microplate reader (CellLux, PerkinElmer) which is used for the addition of the test compound, reference agonist or HBSS buffer (basal control), and the measurements of changes in fluorescence intensity which varies proportionally to the free cytosolic Ca2+ ion concentration. For stimulated control measurements, Icilin at 3 μM is added in separate assay wells. The results are expressed as a percent of the control response to 3 μM icilin. The standard reference agonist is Icilin, which is tested in each experiment at several concentrations to generate a concentration-response curve from which its EC50 value is calculated. (Behrendt, H. J., Germann, T., Gillen, C and Hatt, H. and Jostock, R. (2004), Characterization of the mouse cold-menthol receptor TRPM8 and vanilloid receptor type-1 VR1 using a fluorometric imaging plate reader (FLIPR) assay, Br. J. Pharmacol., 141: 737.)
Data analysis: EC50 values were determined as the concentration of test substance required to produce half-maximal increases in [Ca^2+]. Maximal [Ca^2+] responses were measured as peak fluorescence intensity (FI) minus basal FI, and expressed as percentages of the maximum response to icilin. Data are given as means±s.e.m., unless otherwise stated.
The EC50 values (concentration producing a half-maximal response) and IC50 values (concentration causing a half-maximal inhibition of the control agonist response) were determined by non-linear regression analysis of the concentration-response curves generated with mean replicate values using Hill equation curve fitting:
where Y=response, A=left asymptote of the curve, D=right asymptote of the curve, C=compound concentration, and C50=EC50, and nH=slope factor.

[3] = Solubility assay in DI water; format: physicochemical; settings: thermodynamic from solid, HCl salts, visual, stepwise dilution from 200 mg/mL, sonication and vortex
Method: In order to determine the aqueous solubility of the compounds indicated, the HCl salts of the following compounds were incubated at 200 mg/mL in DI water followed by sonication for 60 seconds and then vortex stirring for 60 seconds. If insoluble material was observed, the sample was diluted to 150, 100, 50, 25, or 20 mg/mL until no insoluble material was observed. After each dilution, each sample was sonicated for 60 seconds, vortexed for 60 seconds and let equilibrate with occasional shaking for 30 minutes.

[4] = cited from earlier work
[5] = pH = ~5.0 (0.2 M aqueous sodium citrate/citric acid buffer)
[6] = pH = ~7.4 (1X Phosphate Buffered Saline)
[7] = Ca2+ mobilization, fluorometric detection, 293H cells, response relative to 3 μM icilin, read-out: TRPM8 agonist EC50

| % degradation at 28 days [1, 5] | % degradation at 28 days [1, 6] | EC50 [2, 7] [nM] | SMILES | further results |
| --- | --- | --- | --- | --- |
| ~36.2% | ~41.2% | – | CC(C)[C@@H]1CC[C@@H](C)C[C@H]1OC(=O)Nc1cccc(CN)c1 [Aniline 1] | – |
| ~24.3% | ~24.4% | – | CC(C)[C@@H]1CC[C@@H](C)C[C@H]1OC(=O)N(C)c1cccc(CN)c1 [Aniline 2] | – |
| ~0.4% | ~8.1% | – | CC(C)[C@@H]1CC[C@@H](C)C[C@H]1OCC(=O)N(C)c1cccc(CN)c1 [Aniline 3] | aqueous stability / hydrolysis, comparison in words [1]: more stable |
| ~23.5% | ~31.9% | – | CC(C)[C@@H]1CC[C@@H](C)C[C@H]1C(=O)N(C)c1cccc(CN)c1 [Aniline 4] | – |
| Noneª None^b | Noneª None^b | 752 | CC(C)[C@@H]1CC[C@@H](C)C[C@H]1C(=O)N(C)Cc1cccc(CN(C)C)c1.Cl [Compound 3, (1R,2S,5R)-N-(3-((dimethylamino)methyl)benzyl)-2-isopropyl-N,5-dimethylcyclohexanecarboxamide hydrochloride] | aqueous stability / hydrolysis, comparison in words [1]: greatest aqueous stability |
| ~7.1% | ~1.7% | 100 | CC(C)[C@@H]1CC[C@@H](C)C[C@H]1C(=O)NCc1ccc(CN)cc1.Cl [Compound 4, (1R,2S,5R)-N-(4-(aminomethyl)benzyl)-2-isopropyl-5-methylcyclohexanecarboxamide hydrochloride] | solubility at 30 min ([3]; DI water): ≥ 20 mg/mL; aqueous stability / hydrolysis, comparison in words [1]: greatest aqueous stability |
| – | – | – | CC(C)[C@@H]1CC[C@@H](C)C[C@H]1C(=O)NCc1ccc(CN2CCNCC2)cc1.Cl.Cl [Compound 15, (1R,2S,5R)-2-isopropyl-5-methyl-N-(4-(piperazin-1-ylmethyl)benzyl)cyclohexanecarboxamide dihydrochloride] | solubility at 30 min [3]: ≥ 200 mg/mL; EC50 [2]: 79 nM |
| – | – | 345 | CC(C)[C@@H]1CC[C@@H](C)C[C@H]1C(=O)NCc1ccc(C2CCNCC2)cc1.Cl [Compound 16, (1R,2S,5R)-2-isopropyl-5-methyl-N-(4-(piperidin-4-yl)benzyl)cyclohexanecarboxamide hydrochloride] | solubility at 30 min ([3]; DI water): ≥ 20 mg/mL |
| – | – | 421 | CC(C)[C@@H]1CC[C@@H](C)C[C@H]1C(=O)NCc1ccc(CN(C)C)cc1 [Compound 21, (1R,2S,5R)-N-(4-((dimethylamino)methyl)benzyl)-2-isopropyl-5-methylcyclohexanecarboxamide hydrochloride] | – |
| – | – | 890 | CC(C)[C@@H]1CC[C@@H](C)C[C@H]1C(=O)NCc1ccc(CN2CCOCC2)cc1 [Compound 22, (1R,2S,5R)-2-isopropyl-5-methyl-N-(4-(morpholinomethyl)benzyl)cyclohexanecarboxamide hydrochloride] | – |
| – | – | – | CC(C)[C@@H]1CC[C@@H](C)C[C@H]1O [menthol, (1R,2S,5R)-2-isopropyl-5-methylcyclohexanol] | known aqueous solubility in water [4]: ~0.4 mg/mL |

| SMILES | % degradation at 28 days [1, 5] | % degradation at 28 days [1, 6] | EC50 [2, 7] [nM] | further results |
| --- | --- | --- | --- | --- |
| CC(C)[C@@H]1CC[C@@H](C)C[C@H]1C(=O)NCc1ccc(N2CCNCC2)cc1.Cl.Cl [Compound 10, (1R,2S,5R)-2-isopropyl-5-methyl-N-(4-(piperazin-1-yl)benzyl)cyclohexanecarboxamide dihydrochloride] | – | – | 110 | solubility at 30 min [3]: ≥ 200 mg/mL |
